What was measured:
[1] = molecular target: Tyrosine-protein kinase Srms (Homo sapiens) (UniProt Q9H3Y6); conditions: Compound concentration 100.0 nM
[2] = molecular target: Tyrosine-protein kinase Blk (Homo sapiens) (UniProt P51451); conditions: Compound concentration 100.0 nM
[3] = molecular target: Calcium/calmodulin-dependent protein kinase type IV (Homo sapiens) (UniProt Q16566); conditions: Compound concentration 100.0 nM
[4] = molecular target: Mitogen-activated protein kinase kinase kinase 4 (Homo sapiens) (UniProt Q9Y6R4); conditions: Compound concentration 100.0 nM
[5] = molecular target: Macrophage-stimulating protein receptor (Homo sapiens) (UniProt Q04912); conditions: Compound concentration 100.0 nM
[6] = molecular target: MAP kinase-interacting serine/threonine-protein kinase 1 (Homo sapiens) (UniProt Q9BUB5); conditions: Compound concentration 100.0 nM
[7] = molecular target: Aurora kinase A (Homo sapiens) (UniProt O14965); conditions: Compound concentration 100.0 nM
[8] = test system: Epidermal growth factor receptor (Homo sapiens), P00533 [G719C]; conditions: Compound concentration 100.0 nM
[9] = molecular target: Dual specificity protein kinase CLK4 (Homo sapiens) (UniProt Q9HAZ1); conditions: Compound concentration 100.0 nM
[10] = molecular target: Dual specificity mitogen-activated protein kinase kinase 7 (Homo sapiens) (UniProt O14733); conditions: Compound concentration 100.0 nM
[11] = molecular target: Mitogen-activated protein kinase kinase kinase 12 (Homo sapiens) (UniProt Q12852); conditions: Compound concentration 100.0 nM
[12] = molecular target: Serine/threonine-protein kinase Nek11 (Homo sapiens) (UniProt Q8NG66); conditions: Compound concentration 100.0 nM
[13] = test system: Proto-oncogene tyrosine-protein kinase receptor Ret (Homo sapiens), P07949 [M918T]; conditions: Compound concentration 100.0 nM
[14] = molecular target: Non-receptor tyrosine-protein kinase TYK2 (Homo sapiens) (UniProt P29597); conditions: Compound concentration 100.0 nM
[15] = molecular target: Casein kinase I isoform epsilon (Homo sapiens) (UniProt P49674); conditions: Compound concentration 100.0 nM
[16] = test system: Phosphatidylinositol 4,5-bisphosphate 3-kinase catalytic subunit alpha isoform (Homo sapiens), P42336 [H1047Y]; conditions: Compound concentration 100.0 nM
[17] = test system: Phosphatidylinositol 4,5-bisphosphate 3-kinase catalytic subunit alpha isoform (Homo sapiens), P42336 [Q546K]; conditions: Compound concentration 100.0 nM
[18] = molecular target: Epithelial discoidin domain-containing receptor 1 (Homo sapiens) (UniProt Q08345); conditions: Compound concentration 100.0 nM
[19] = molecular target: TGF-beta receptor type-2 (Homo sapiens) (UniProt P37173); conditions: Compound concentration 100.0 nM
[20] = molecular target: Homeodomain-interacting protein kinase 1 (Homo sapiens) (UniProt Q86Z02); conditions: Compound concentration 100.0 nM
[21] = molecular target: Sodium-dependent serotonin transporter (Homo sapiens) (UniProt P31645); conditions: Compound concentration 10.0 uM
[22] = molecular target: Casein kinase II subunit alpha' (Homo sapiens) (UniProt P19784); conditions: Compound concentration 100.0 nM
[23] = molecular target: Calcium/calmodulin-dependent protein kinase type 1G (Homo sapiens) (UniProt Q96NX5); conditions: Compound concentration 100.0 nM
[24] = molecular target: Cyclin-dependent kinase-like 1 (Homo sapiens) (UniProt Q00532); conditions: Compound concentration 100.0 nM
[25] = molecular target: Mitogen-activated protein kinase 9 (Homo sapiens) (UniProt P45984); conditions: Compound concentration 100.0 nM
[26] = molecular target: Mitogen-activated protein kinase 15 (Homo sapiens) (UniProt Q8TD08); conditions: Compound concentration 100.0 nM
[27] = molecular target: Mitogen-activated protein kinase kinase kinase 11 (Homo sapiens) (UniProt Q16584); conditions: Compound concentration 100.0 nM
[28] = molecular target: RAC-beta serine/threonine-protein kinase (Homo sapiens) (UniProt P31751); conditions: Compound concentration 100.0 nM
[29] = molecular target: Dual specificity protein kinase CLK1 (Homo sapiens) (UniProt P49759); conditions: Compound concentration 100.0 nM
[30] = molecular target: Macrophage colony-stimulating factor 1 receptor (Homo sapiens) (UniProt P07333); conditions: Compound concentration 100.0 nM
[31] = molecular target: Cyclin-G-associated kinase (Homo sapiens) (UniProt O14976); conditions: Compound concentration 100.0 nM
[32] = molecular target: Tyrosine-protein kinase ITK/TSK (Homo sapiens) (UniProt Q08881); conditions: Compound concentration 100.0 nM
[33] = molecular target: Serine/threonine-protein kinase 10 (Homo sapiens) (UniProt O94804); conditions: Compound concentration 100.0 nM
[34] = molecular target: Testis-specific serine/threonine-protein kinase 1 (Homo sapiens) (UniProt Q9BXA7); conditions: Compound concentration 100.0 nM
[35] = test system: Receptor-type tyrosine-protein kinase FLT3 (Homo sapiens), P36888 [N841I]; conditions: Compound concentration 100.0 nM
[36] = test system: Tyrosine-protein kinase ABL1 (Homo sapiens), P00519 [Q252H]; conditions: Compound concentration 100.0 nM
[37] = molecular target: Tyrosine-protein kinase TXK (Homo sapiens) (UniProt P42681); conditions: Compound concentration 100.0 nM
[38] = molecular target: Serine/threonine-protein kinase 38 (Homo sapiens) (UniProt Q15208); conditions: Compound concentration 100.0 nM
[39] = test system: Tyrosine-protein kinase ABL1 (Homo sapiens), P00519 [H396P]; conditions: Compound concentration 100.0 nM
[40] = molecular target: 1-phosphatidylinositol 3-phosphate 5-kinase (Homo sapiens) (UniProt Q9Y2I7); conditions: Compound concentration 100.0 nM
[41] = test system: Tyrosine-protein kinase ABL1 (Homo sapiens), P00519 [F317L]; conditions: Compound concentration 100.0 nM
[42] = molecular target: Serine/threonine-protein kinase PLK2 (Homo sapiens) (UniProt Q9NYY3); conditions: Compound concentration 100.0 nM
[43] = molecular target: Serine/threonine-protein kinase ICK (Homo sapiens) (UniProt Q9UPZ9); conditions: Compound concentration 100.0 nM
[44] = molecular target: Ephrin type-A receptor 1 (Homo sapiens) (UniProt P21709); conditions: Compound concentration 100.0 nM
[45] = molecular target: cAMP-dependent protein kinase catalytic subunit beta (Homo sapiens) (UniProt P22694); conditions: Compound concentration 100.0 nM

Chain of Mitogen-activated protein kinase 15 (Homo sapiens) (Q8TD08 whole entry): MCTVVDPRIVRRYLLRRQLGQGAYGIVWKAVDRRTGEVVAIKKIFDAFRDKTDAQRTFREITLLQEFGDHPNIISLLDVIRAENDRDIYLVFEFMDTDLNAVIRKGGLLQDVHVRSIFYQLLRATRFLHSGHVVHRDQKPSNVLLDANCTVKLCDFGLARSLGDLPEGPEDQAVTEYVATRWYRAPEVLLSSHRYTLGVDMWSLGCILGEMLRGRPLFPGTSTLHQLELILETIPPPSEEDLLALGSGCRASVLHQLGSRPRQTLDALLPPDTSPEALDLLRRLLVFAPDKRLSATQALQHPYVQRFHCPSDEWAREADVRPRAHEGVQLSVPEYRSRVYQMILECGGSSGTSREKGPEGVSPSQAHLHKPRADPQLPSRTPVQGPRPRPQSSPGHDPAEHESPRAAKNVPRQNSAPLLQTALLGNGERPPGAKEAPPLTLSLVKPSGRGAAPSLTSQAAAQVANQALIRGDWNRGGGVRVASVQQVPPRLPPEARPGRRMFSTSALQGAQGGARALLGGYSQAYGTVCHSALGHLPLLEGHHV
Chain of Non-receptor tyrosine-protein kinase TYK2 (Homo sapiens) (P29597 whole entry, canonical isoform): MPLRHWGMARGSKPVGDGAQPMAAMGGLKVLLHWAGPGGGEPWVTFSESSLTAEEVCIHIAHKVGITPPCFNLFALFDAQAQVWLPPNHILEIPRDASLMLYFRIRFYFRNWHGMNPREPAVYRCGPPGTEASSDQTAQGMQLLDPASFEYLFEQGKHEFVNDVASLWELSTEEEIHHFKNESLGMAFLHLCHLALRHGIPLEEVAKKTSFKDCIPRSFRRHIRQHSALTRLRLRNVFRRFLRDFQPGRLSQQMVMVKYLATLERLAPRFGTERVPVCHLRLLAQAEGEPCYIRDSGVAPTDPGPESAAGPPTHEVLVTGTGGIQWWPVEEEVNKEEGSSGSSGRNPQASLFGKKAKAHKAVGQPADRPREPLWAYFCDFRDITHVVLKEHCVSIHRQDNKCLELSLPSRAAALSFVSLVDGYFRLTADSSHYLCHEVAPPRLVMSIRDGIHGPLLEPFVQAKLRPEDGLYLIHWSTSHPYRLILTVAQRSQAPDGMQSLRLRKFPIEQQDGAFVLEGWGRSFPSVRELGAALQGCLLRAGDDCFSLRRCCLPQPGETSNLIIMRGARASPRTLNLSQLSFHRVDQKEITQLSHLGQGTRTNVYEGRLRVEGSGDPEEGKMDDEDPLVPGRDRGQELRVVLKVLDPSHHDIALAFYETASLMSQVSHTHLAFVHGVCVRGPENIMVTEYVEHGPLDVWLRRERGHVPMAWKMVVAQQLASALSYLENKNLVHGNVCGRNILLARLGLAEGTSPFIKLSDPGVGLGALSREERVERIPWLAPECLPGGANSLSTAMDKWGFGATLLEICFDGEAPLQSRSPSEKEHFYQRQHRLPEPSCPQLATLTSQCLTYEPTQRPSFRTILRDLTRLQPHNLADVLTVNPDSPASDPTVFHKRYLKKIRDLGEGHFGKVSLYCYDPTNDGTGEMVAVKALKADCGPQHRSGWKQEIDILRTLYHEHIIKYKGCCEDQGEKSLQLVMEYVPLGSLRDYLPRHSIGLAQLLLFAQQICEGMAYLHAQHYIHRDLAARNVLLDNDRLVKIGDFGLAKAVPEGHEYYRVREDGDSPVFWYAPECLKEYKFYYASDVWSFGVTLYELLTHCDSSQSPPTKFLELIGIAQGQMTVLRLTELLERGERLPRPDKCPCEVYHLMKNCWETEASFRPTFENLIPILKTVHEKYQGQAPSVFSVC
Chain of 1-phosphatidylinositol 3-phosphate 5-kinase (Homo sapiens) (Q9Y2I7 whole entry): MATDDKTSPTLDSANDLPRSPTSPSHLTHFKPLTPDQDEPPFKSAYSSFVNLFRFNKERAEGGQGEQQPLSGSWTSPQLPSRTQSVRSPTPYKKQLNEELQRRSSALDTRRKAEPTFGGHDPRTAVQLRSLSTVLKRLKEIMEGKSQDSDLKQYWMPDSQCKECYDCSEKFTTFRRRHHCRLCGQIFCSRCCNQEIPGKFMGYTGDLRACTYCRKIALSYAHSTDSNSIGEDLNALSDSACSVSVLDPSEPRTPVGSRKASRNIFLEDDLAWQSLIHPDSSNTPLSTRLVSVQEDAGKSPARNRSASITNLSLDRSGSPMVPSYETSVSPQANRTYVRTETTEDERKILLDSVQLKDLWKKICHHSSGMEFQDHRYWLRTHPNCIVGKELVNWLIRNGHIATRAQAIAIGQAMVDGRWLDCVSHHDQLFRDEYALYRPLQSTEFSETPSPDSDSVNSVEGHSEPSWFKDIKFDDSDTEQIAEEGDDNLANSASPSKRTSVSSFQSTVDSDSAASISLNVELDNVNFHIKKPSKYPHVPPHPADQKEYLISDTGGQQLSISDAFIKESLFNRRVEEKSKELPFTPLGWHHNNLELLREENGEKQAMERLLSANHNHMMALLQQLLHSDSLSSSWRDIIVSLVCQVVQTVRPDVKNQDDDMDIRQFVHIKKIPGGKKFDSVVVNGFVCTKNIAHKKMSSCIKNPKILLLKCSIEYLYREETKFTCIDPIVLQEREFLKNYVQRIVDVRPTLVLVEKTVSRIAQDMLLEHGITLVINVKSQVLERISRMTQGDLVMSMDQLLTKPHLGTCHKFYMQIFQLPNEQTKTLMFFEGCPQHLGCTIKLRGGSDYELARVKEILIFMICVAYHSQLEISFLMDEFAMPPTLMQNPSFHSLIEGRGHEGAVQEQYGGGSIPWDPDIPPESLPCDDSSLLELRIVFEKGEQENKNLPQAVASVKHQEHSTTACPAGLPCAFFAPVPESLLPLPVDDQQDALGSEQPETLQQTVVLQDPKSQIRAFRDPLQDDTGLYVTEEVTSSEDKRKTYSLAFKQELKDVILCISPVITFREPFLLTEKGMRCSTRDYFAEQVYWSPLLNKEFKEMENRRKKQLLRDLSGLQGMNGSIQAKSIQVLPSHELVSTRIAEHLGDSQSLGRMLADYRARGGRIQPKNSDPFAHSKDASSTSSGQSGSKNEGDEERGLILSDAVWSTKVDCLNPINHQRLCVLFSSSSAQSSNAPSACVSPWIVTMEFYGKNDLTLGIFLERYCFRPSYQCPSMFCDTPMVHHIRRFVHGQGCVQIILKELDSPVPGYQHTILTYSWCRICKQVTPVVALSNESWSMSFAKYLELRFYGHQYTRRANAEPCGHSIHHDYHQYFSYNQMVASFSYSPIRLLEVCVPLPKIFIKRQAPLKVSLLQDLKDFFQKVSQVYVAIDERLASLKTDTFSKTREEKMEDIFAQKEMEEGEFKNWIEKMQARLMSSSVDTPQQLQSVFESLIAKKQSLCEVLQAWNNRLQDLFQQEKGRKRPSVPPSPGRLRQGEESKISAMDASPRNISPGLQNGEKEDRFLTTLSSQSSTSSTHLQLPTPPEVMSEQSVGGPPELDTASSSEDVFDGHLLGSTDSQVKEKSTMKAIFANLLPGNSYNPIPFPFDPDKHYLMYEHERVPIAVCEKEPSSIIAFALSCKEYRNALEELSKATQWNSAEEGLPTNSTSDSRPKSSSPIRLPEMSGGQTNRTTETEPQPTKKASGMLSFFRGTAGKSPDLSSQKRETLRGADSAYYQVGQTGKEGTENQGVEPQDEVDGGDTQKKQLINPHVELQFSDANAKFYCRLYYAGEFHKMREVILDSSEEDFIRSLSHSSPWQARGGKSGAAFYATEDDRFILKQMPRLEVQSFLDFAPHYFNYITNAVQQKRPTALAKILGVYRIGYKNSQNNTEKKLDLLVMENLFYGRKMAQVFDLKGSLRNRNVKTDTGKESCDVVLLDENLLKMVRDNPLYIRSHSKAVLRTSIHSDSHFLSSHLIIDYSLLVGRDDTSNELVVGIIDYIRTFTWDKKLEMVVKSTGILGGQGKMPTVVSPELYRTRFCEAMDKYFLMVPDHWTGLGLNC
Chain of RAC-beta serine/threonine-protein kinase (Homo sapiens) (P31751 whole entry): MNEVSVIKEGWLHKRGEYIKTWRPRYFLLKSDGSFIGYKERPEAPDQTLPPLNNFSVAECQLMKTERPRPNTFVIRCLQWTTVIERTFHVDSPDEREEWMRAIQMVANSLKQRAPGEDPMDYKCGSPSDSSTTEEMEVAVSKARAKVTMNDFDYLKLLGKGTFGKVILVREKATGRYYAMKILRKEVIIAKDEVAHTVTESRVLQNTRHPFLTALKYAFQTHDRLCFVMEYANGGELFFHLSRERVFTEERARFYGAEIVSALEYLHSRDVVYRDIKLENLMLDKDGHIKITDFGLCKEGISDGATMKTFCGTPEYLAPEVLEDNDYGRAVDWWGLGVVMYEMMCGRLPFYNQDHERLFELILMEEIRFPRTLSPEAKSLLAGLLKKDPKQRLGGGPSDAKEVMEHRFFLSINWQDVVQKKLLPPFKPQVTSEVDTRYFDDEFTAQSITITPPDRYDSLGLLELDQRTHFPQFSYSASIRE
Chain of Serine/threonine-protein kinase Nek11 (Homo sapiens) (Q8NG66 whole entry): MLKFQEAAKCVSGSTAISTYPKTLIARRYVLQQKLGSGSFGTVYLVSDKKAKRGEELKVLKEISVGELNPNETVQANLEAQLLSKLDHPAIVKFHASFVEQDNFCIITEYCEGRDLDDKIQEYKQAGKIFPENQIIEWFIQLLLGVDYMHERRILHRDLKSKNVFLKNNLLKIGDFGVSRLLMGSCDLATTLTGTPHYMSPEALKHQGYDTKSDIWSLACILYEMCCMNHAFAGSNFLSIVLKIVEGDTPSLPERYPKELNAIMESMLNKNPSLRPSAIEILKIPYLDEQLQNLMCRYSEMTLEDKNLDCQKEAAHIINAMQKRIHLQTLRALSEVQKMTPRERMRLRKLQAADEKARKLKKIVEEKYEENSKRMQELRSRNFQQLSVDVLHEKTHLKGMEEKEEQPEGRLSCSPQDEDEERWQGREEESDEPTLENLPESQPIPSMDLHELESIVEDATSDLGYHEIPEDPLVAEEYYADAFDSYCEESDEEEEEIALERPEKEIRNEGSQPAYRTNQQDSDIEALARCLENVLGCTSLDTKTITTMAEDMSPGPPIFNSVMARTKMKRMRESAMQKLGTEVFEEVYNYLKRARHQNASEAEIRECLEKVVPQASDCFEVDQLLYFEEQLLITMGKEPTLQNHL

Cc1ccc(-c2cnc([C@@]3(O)CC[C@H](C(=O)O)C(C)(C)C3)s2)cc1Nc1cccc(C(F)(F)F)n1 [MRL-SYKi-NC]
active: residual activity [25] 45.3%
inactive: residual activity [1] 100% | residual activity [2] 100% | residual activity [3] 100% | residual activity [4] 100% | residual activity [5] 100% | residual activity [6] 75% | residual activity [7] 60.2% | residual activity [8] 100% | residual activity [9] 65.2% | residual activity [10] 77.8% | residual activity [11] 99.3% | residual activity [12] 93% | residual activity [13] 100% | residual activity [14] 100% | residual activity [15] 87.6% | residual activity [16] 81.3% | residual activity [17] 100% | residual activity [18] 100% | residual activity [19] 100% | residual activity [20] 84.8% | inhibition [21] 15.7% | residual activity [22] 59.8% | residual activity [23] 90.7% | residual activity [24] 75.6% | residual activity [26] 80.3% | residual activity [27] 100% | residual activity [28] 100% | residual activity [29] 83.8% | residual activity [30] 100% | residual activity [31] 100% | residual activity [32] 94.7% | residual activity [33] 74.5% | residual activity [34] 100% | residual activity [35] 89.3% | residual activity [36] 75.4% | residual activity [37] 88.4% | residual activity [38] 87.9% | residual activity [39] 87.2% | residual activity [40] 89.4% | residual activity [41] 99.1% | residual activity [42] 100% | residual activity [43] 91.7% | residual activity [44] 100% | residual activity [45] 71.5%

Cc1cc(Nc2nccc(C)n2)cc(-c2cnc([C@@]3(O)CC[C@H](C(=O)O)C(C)(C)C3)s2)c1 [MRL-SYKi]
inactive: residual activity [1] 81.2% | residual activity [2] 74.6% | residual activity [3] 92.3% | residual activity [4] 67.4% | residual activity [5] 65.9% | residual activity [6] 94.8% | residual activity [7] 100% | residual activity [8] 100% | residual activity [9] 90.9% | residual activity [10] 90.3% | residual activity [11] 66.9% | residual activity [12] 61.2% | residual activity [13] 95.5% | residual activity [14] 68.6% | residual activity [15] 100% | residual activity [17] 81.6% | residual activity [18] 84.5% | residual activity [20] 52.3% | inhibition [21] 3.34% | residual activity [22] 100% | residual activity [23] 100% | residual activity [24] 78.8% | residual activity [25] 100% | residual activity [26] 100% | residual activity [27] 92.6% | residual activity [28] 100% | residual activity [29] 97.9% | residual activity [30] 100% | residual activity [31] 100% | residual activity [32] 81% | residual activity [33] 100% | residual activity [34] 100% | residual activity [35] 100% | residual activity [36] 86.9% | residual activity [37] 64% | residual activity [38] 80.6% | residual activity [39] 74.3% | residual activity [40] 98.7% | residual activity [41] 100% | residual activity [42] 100% | residual activity [43] 65.4% | residual activity [44] 100% | residual activity [45] 100%
active: residual activity [16] 14.7% | residual activity [19] 49.5%

From ChEMBL document CHEMBL4507285, “Data for DCP probe MRL-SYKi” (2021)
